Tests used:
GL261 glioma = system: GL261 glioma; parameters: species or system C57BL/6 mice; settings: mouse, in vivo
Protocol: The animals were anesthetized with a combination of Zoletil 100 (Virbac, France) and Rometar (Bioveta, Czech Republic). Rat glioma C6 (2х10^6) and mice glioma GL261 (1х10^6) cells were injected intracranially into the area of nucl. caudatus dexter.
For evaluation of the tumor retention of the RAS70 peptide in GL261 glioma-bearing mice the animals following tumor cells injection were randomly assigned to the study groups (6 animals each) as follows (1): control group – PBS i.v. injection via tail vein (100 μL) (2); i.v. administration of […] peptide (100 μl, 2.5 mg/kg) (3); i.v. administration of NGL-RGD-sCy7.5 peptide (100 μl, 2.5 mg/kg) (4); i.v. administration of TKD-sCy7.5 peptide (100 μl, 2.5 mg/kg) (5); i.v. administration of […] peptide (100 μl, 2.5 mg/kg). Following clinical manifestation of the brain tumor progression in animals (3–4 weeks after intracranial tumor cells injection) peptides were i.v. injected and the peptides biodistribution was assessed employing IVIS in vivo Imaging System (PerkinElmer, USA). […]
Processing of the obtained luminescence images was performed using Living Image 4.7.4 firmware. The luminescence signals were read from the color maps of the obtained images by selecting the ROI contour (region of interest). […]

[1] = RAS70 solution stability study (HPLC-QTOF/MS); type: physicochemical; settings: 1 mg/mL stock in sterile 0.9% sodium chloride, diluted working solutions, Protein LoBind tubes, HPLC-QTOF/MS peak area normalized to internal standard dalargin vs freshly prepared solutions
From the text: HPLC grade reagents include acetonitrile (1.00029) and formic acid (5.33002), were purchased from Sigma Aldrich. The deionized HPLC grade water was obtained through a Milli-Q system (Millipore, Milford, MA, USA). Sodium acetate (Sigma Aldrich, St. Louis, USA) was used for MS calibration. Dalargin (Tyrosyl-D-alanyl-glycyl-phenylalanyl-leucyl-arginine; UNII V13505565P) was used as an internal standard. Protein LoBind® Tubes (022431081, Eppendorf, Hamburg, Germany). The stock solution of RAS70 were prepared by dissolving 1 mg of RAS70 reference standard in 1 mL of a sterile solution of 0.9% sodium chloride in water. After centrifugation the supernatant were transferred into Protein LoBind Tubes (Eppendorf, Hamburg, Germany). Working standard solutions for stability study were prepared using a dilution method. All of the solutions were stored away from light at RT and in a refrigerator at +4°C. The samples were analyzed on a HPLC-QTOF/MS system (Bruker Daltonics, Bremen, Germany) that consisted of an Elute UHPLC coupled to Q-TOF Maxis Impact equipped with an electrospray ionization source ( Supplementary Figure S1 ). […] Chromatograms and mass spectra were analyzed using DataAnalysis® 5.0 software (Bruker Daltonics GmbH, Bremen, Germany). […]

[2] = system: C6 cells (lower chamber; HUVEC and astrocytes barrier)
Protocol: (§1) Then, a peptide labeled with a fluorescent label was introduced into the upper chamber and co-incubation was carried out for 12, 24 and 36 hours. At the end of the incubation, the tumor cells were washed with cold phosphate-buffered saline (PBS) and fixed with a 4% solution of paraformaldehyde in PBS. Nuclei were stained with 4’,6-diamidino-2-phenylindole (DAPI). Fluorescent images were obtained using a Leica TCS SP8 confocal microscope (Leica, Germany). To avoid possible cross-interference of different fluorochromes, images for DAPI and FITC were obtained using a sequential sample scanning method. Fluorescently labeled cells were counted in the lower chamber. To estimate the mHsp70-mediated uptake of chaperone-targeted peptides tumor cells prior to incubation were pre-treated with anti-Hsp70 monoclonal antibodies SPA-810 (1:250, Stressgen) and SPA-815 (1:250 Stressgen). To exclude integrin (αvβ3, αvβ5)-mediated penetration of RAS70 tumor cells prior to incubation with peptides were pre-treated with anti- αvβ3 (1:200 clone LM609, ZMS1030, Sigma-Aldrich, USA), -αvβ5 (1:200 clone P1F6, MAB1961Z, Sigma-Aldrich, USA) monoclonal antibodies.
(§2) Then, a peptide labeled with a fluorescent dye (FITC) was introduced into the upper chamber and co-incubation was carried out for 12, 24 and 36 hours. At the end of the incubation, the tumor cells were washed with cold phosphate-buffered saline (PBS) and fixed with a 4% solution of paraformaldehyde in PBS. Nuclei were stained with 4’,6-diamidino-2-phenylindole (DAPI).
(§3) Data from 3 independent experiments are presented as M ± SE. […] Data from 3 independent experiments are presented as M ± SE. ** p < 0.01 for testing mean expression levels.

[3] = system: GL261 cells (lower chamber; HUVEC and astrocytes barrier); assay: Transwell BBB model, peptide passage and accumulation in tumor cells; settings: transwell BBB model: HUVEC (5×10^5) and astrocytes (5×10^5) in upper chamber, GL261 (1×10^4) in lower chamber; FITC-labeled peptide; 36 hours; confocal microscopy count; M ± SE, 3 independent experiments
Protocol: as §1, §2, §3

SMILES: CC(C)C[C@H](NC(=O)[C@H](CC(C)C)NC(=O)[C@H](CC(N)=O)NC(=O)[C@H](CC(N)=O)NC(=O)[C@H](CC(=O)O)NC(=O)[C@H](CCCCN)NC(=O)[C@@H](N)[C@@H](C)O)C(=O)NCC(=O)N[C@@H](CCCNC(=N)N)C(=O)N[C@@H](Cc1ccccc1)C(=O)N[C@@H](CCC(=O)O)C(=O)N[C@@H](CC(C)C)C(=O)N[C@@H](CO)C(=O)NCC(=O)NCCC(=O)N[C@@H](CCCNC(=N)N)C(=O)NCC(=O)N[C@@H](CC(=O)O)C(=O)O [RAS70]
- presence in normal brain tissue of animals (GL261 glioma): non-specific presence of the RAS70 in blood vessel but not in normal brain cells
- rank order of organ accumulation (biodistribution) (GL261 glioma; iv): kidney > liver > small intestine > lungs
- time for which RAS70 solution was stable ([1]; storage at RT away from light): 1 week
- time for which RAS70 solution was stable ([1]; storage in refrigerator at +4°C away from light): 1 week
- fluorescently labeled tumor cells in the lower chamber [2]: 567 ± 72 cells

SMILES: CC(C)C[C@H](NC(=O)[C@H](CC(C)C)NC(=O)[C@H](CC(N)=O)NC(=O)[C@H](CC(N)=O)NC(=O)[C@H](CC(=O)O)NC(=O)[C@H](CCCCN)NC(=O)[C@@H](N)[C@@H](C)O)C(=O)NCC(=O)N[C@@H](CCCNC(=N)N)C(=O)N[C@@H](Cc1ccccc1)C(=O)N[C@@H](CCC(=O)O)C(=O)N[C@@H](CC(C)C)C(=O)N[C@@H](CO)C(=O)NCC(=O)O [TKD]
- fluorescently labeled tumor cells in the lower chamber [3]: 289 ± 51 cells

— publication PMC11973282, “RAS70 peptide targets multiforme glioblastoma by binding to the plasma membrane heat shock protein HSP70” (Frontiers in Oncology, 2025)
